Numbered stars: 1 amine (or outer) side, 2 acyl side, 3 side chain; on linkers, the order of the positions; unused ones are H or OH. Square brackets hold non-standard residues; d marks the D form. Side chains are listed from the residue outwards. Peptide text beside a SMILES is read from it. * marks the point of attachment. DOTA(Lu)NH(CH2)6NHCOCH2 = O=C(CN1CCN2CCN3CCN(CC1)CC(=O)[O][Lu]([O]C(=O)C2)[O]C(=O)C3)NCCCCCCNC(=O)C*; DOTA(Lu) = O=C1CN2CCN3CCN(CC(=O)*)CCN(CC2)CC(=O)[O][Lu]([O]1)[O]C(=O)C3; X5 = O=C(CN1CCN2CCN3CCN(CC1)CC(=O)[O][Lu]([O]C(=O)C2)[O]C(=O)C3)NCC*; Ala(piperidin-4-yl) = O=C([C@H](CC1CCN([*:3])CC1)N[*:1])[*:2]; dTrp(βS-Me) = C[C@@H](c1c[nH]c2ccccc12)[C@@H](N)C(=O)O; βMeTrp(2S,3R) = C[C@H](c1c[nH]c2ccccc12)[C@H](N)C(=O)O; dTrp(4-Me) = Cc1cccc2[nH]cc(C[C@@H](N)C(=O)O)c12; dTrp(5-Cl) = N[C@H](Cc1c[nH]c2ccc(Cl)cc12)C(=O)O; dTrp(5-Me) = Cc1ccc2[nH]cc(C[C@@H](N)C(=O)O)c2c1; X2 = O=C([C@H](CCC1CNC1)N[*:1])[*:2]; Cha = N[C@@H](CC1CCCCC1)C(=O)O; NMehCys = CN[C@@H](CCS)C(=O)O; NMeK = CN[C@@H](CCCCN)C(=O)O; NMeDap = CN[C@@H](CN)C(=O)O; NMeS = CN[C@@H](CO)C(=O)O; Ahx = NCCCCCC(=O)O
target: SSTR2 (Homo sapiens, UniProt P30874); assay: SSTR binding affinity by radioligand binding competition assay ([125I]-Tyr11-Somatostatin, membrane extracts); conditions: radioligand competition, [125I]-Tyr11-Somatostatin 0.1 nM, membrane extracts; Ki from IC50 by Cheng Prusoff; read-out: SSTR2 Ki
Sequence (P30874 whole entry): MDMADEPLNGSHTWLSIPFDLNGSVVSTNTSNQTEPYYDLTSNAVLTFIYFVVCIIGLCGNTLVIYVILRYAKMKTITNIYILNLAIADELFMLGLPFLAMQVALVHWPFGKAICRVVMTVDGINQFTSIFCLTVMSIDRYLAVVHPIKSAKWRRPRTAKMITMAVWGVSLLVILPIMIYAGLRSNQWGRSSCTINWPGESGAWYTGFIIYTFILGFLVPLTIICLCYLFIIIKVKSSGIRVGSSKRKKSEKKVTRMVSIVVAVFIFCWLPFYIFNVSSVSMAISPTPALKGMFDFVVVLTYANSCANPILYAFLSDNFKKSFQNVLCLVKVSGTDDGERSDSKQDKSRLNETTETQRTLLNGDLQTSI

First: C[C@H](c1c[nH]c2ccccc12)[C@@H]1NC(=O)[C@H](Cc2ccc(O)cc2)NC(=O)[C@H](CCCCNC(=O)CN2CCN3CCN4CCN(CC2)CC(=O)[O][Lu]([O]C(=O)C3)[O]C(=O)C4)N(C)C(=O)[C@H](Cc2ccccc2)NC(=O)[C@H]([C@@H](C)O)NC(=O)[C@H](CC2CCNCC2)NC1=O [RB-0006069] (cyclo(F[NMeK](DOTA(Lu))Y[βMeTrp(2S,3R)][Ala(piperidin-4-yl)]T))
Second: COc1ccc(C[C@@H]2NC(=O)[C@H](CCCCNC(=O)CN3CCN4CCN5CCN(CC3)CC(=O)[O][Lu]([O]C(=O)C4)[O]C(=O)C5)N(C)C(=O)[C@H](Cc3ccccc3)NC(=O)[C@H]([C@@H](C)O)NC(=O)[C@H](CC3CCNCC3)NC(=O)[C@@H]([C@@H](C)c3c[nH]c4ccccc34)NC2=O)cc1 [RB-0006139] (cyclo(F[NMeK](DOTA(Lu))Y(Me)[dTrp(βS-Me)][Ala(piperidin-4-yl)]T))
The Ki of the first is lower: 3.33 to 10 nM for the first, 33.3 to 100 nM for the second. The first binds more tightly here.

`Cc1cccc2[nH]cc(C[C@H]3NC(=O)[C@H](Cc4ccc(O)cc4)NC(=O)[C@H](CCSCC(=O)NCCCCCCNC(=O)CN4CCN5CCN6CCN(CC4)CC(=O)[O][Lu]([O]C(=O)C5)[O]C(=O)C6)N(C)C(=O)[C@H](Cc4ccccc4)NC(=O)[C@H]([C@@H](C)O)NC(=O)[C@H](CC4CCNCC4)NC3=O)c12` [RB-0006073] (cyclo(F[NMehCys](DOTA(Lu)NH(CH2)6NHCOCH2)Y[dTrp(4-Me)][Ala(piperidin-4-yl)]T)) and `Cc1ccc2[nH]cc(C[C@H]3NC(=O)[C@H](Cc4ccc(O)cc4)NC(=O)[C@H](CCSCC(=O)NCCCCCCNC(=O)CN4CCN5CCN6CCN(CC4)CC(=O)[O][Lu]([O]C(=O)C5)[O]C(=O)C6)N(C)C(=O)[C@H](Cc4ccccc4)NC(=O)[C@H]([C@@H](C)O)NC(=O)[C@H](CC4CCNCC4)NC3=O)c2c1` [RB-0006074] (cyclo(F[NMehCys](DOTA(Lu)NH(CH2)6NHCOCH2)Y[dTrp(5-Me)][Ala(piperidin-4-yl)]T)) fall in the same range of Ki: 3.33 to 10 nM for the first, 3.33 to 10 nM for the second.

`C[C@@H](O)[C@@H]1NC(=O)[C@H](CC2CCNCC2)NC(=O)[C@@H](Cc2c[nH]c3ccc(Cl)cc23)NC(=O)[C@H](Cc2ccc(O)cc2)NC(=O)[C@H](CCSCC(=O)NCCCCCCNC(=O)CN2CCN3CCN4CCN(CC2)CC(=O)[O][Lu]([O]C(=O)C3)[O]C(=O)C4)N(C)C(=O)[C@H](Cc2ccccc2)NC1=O` [RB-0006075] (cyclo(F[NMehCys](DOTA(Lu)NH(CH2)6NHCOCH2)Y[dTrp(5-Cl)][Ala(piperidin-4-yl)]T)) and `C[C@@H](O)[C@@H]1NC(=O)[C@H](CC2CCNCC2)NC(=O)[C@@H]([C@@H](C)c2c[nH]c3ccccc23)NC(=O)[C@H](Cc2ccc(O)cc2)NC(=O)[C@H](CNC(=O)[C@H](CC(=O)O)NC(=O)CCCCCNC(=O)CN2CCN3CCN4CCN(CC2)CC(=O)[O][Lu]([O]C(=O)C3)[O]C(=O)C4)N(C)C(=O)[C@H](Cc2ccccc2)NC1=O` [RB-0006158] (cyclo(F[NMeDap]([Asp-Ahx-DOTA(Lu)])Y[dTrp(βS-Me)][Ala(piperidin-4-yl)]T)) fall in the same range of Ki: 1 to 3.33 nM for the first, 1 to 3.33 nM for the second.

Compared with `C[C@@H](O)[C@@H]1NC(=O)[C@H](CC2CCNCC2)NC(=O)[C@@H]([C@@H](C)c2c[nH]c3ccccc23)NC(=O)[C@H](Cc2ccc(O)cc2)NC(=O)[C@H](COCCNC(=O)CN2CCN3CCN4CCN(CC2)CC(=O)[O][Lu]([O]C(=O)C3)[O]C(=O)C4)N(C)C(=O)[C@H](Cc2ccccc2)NC1=O` [RB-0006095] (cyclo(F[NMeS](X5)Y[dTrp(βS-Me)][Ala(piperidin-4-yl)]T)), `C[C@@H](O)[C@@H]1NC(=O)[C@H](CC2CCNCC2)NC(=O)[C@@H]([C@@H](C)c2c[nH]c3ccccc23)NC(=O)[C@H](Cc2ccc(O)cc2)NC(=O)[C@H](CNC(=O)[C@H](CC(=O)O)NC(=O)CN2CCN3CCN4CCN(CC2)CC(=O)[O][Lu]([O]C(=O)C3)[O]C(=O)C4)N(C)C(=O)[C@H](Cc2ccccc2)NC1=O` [RB-0006160] (cyclo(F[NMeDap]([Asp-DOTA(Lu)])Y[dTrp(βS-Me)][Ala(piperidin-4-yl)]T)) is higher in Ki: less than 1 nM for the first, 10 to 33.3 nM for the second.

First: C[C@@H](O)[C@@H]1NC(=O)[C@H](CCC2CNC2)NC(=O)[C@@H]([C@@H](C)c2c[nH]c3ccccc23)NC(=O)[C@H](Cc2ccc(O)cc2)NC(=O)[C@H](CCCCNC(=O)CN2CCN3CCN4CCN(CC2)CC(=O)[O][Lu]([O]C(=O)C3)[O]C(=O)C4)N(C)C(=O)[C@H](Cc2ccccc2)NC1=O [RB-0006128] (cyclo(F[NMeK](DOTA(Lu))Y[dTrp(βS-Me)][X2]T))
Second: C[C@@H](O)[C@@H]1NC(=O)[C@H](CC2CCNCC2)NC(=O)[C@@H]([C@@H](C)c2c[nH]c3ccccc23)NC(=O)[C@H](Cc2ccc(O)cc2)NC(=O)[C@H](CCCCNC(=O)CN2CCN3CCN4CCN(CC2)CC(=O)[O][Lu]([O]C(=O)C3)[O]C(=O)C4)N(C)C(=O)[C@H](CO)NC1=O [RB-0006166] (cyclo([NMeK](DOTA(Lu))Y[dTrp(βS-Me)][Ala(piperidin-4-yl)]TS))
The Ki of the first is lower: less than 1 nM for the first, 33.3 to 100 nM for the second.

In the case of `C[C@@H](O)[C@@H]1NC(=O)[C@H](CC2CCNCC2)NC(=O)[C@@H]([C@@H](C)c2c[nH]c3ccccc23)NC(=O)[C@H](Cc2ccc(O)cc2)NC(=O)[C@H](CCCCNC(=O)CN2CCN3CCN4CCN(CC2)CC(=O)[O][Lu]([O]C(=O)C3)[O]C(=O)C4)N(C)C(=O)[C@H](CC2CCCCC2)NC1=O` [RB-0006162] (cyclo([Cha][NMeK](DOTA(Lu))Y[dTrp(βS-Me)][Ala(piperidin-4-yl)]T)), the Ki is reported as 1 to 3.33 nM.

From patent US20250222146A1, “Radiopharmaceuticals Targeting Somatostatin Receptor 2 and Uses Thereof” (RayzeBio, Inc., priority 2023, published 2025)
